{"source": "ChEMBL document CHEMBL3352705", "about": "“Anion inhibition study of the β-class carbonic anhydrase (PgiCAb) from the oral pathogen Porphyromonas gingivalis” (Bioorg Med Chem Lett, 2014)", "target": "Carbonic anhydrase 2 (Homo sapiens, UniProt P00918)", "data": [{"smiles": "[F-].[Na+]", "note": "[SODIUM FLUORIDE]", "values": [{"measurement": "Ki", "value": "> 200", "unit": "mM"}]}]}
